In the NIST ThermoML archive (doi:10.1021/je900064e):
Values joined by “and” are separate entries in the source; they are usually repeats but may differ in a detail not shown here. Equal values may be shown once. ± gives the expanded uncertainty stated by the source.

Legend:
[1] = 101.33 kPa, Liquid; for speed of sound: Sing-around technique in a fixed-path interferometer
[2] = φn = volume fraction of the nth substance listed; conditions: 101 kPa, Liquid, φ1 = 0.5

OCCN(CCO)CCO [triethanolamine]
[1]
Conditions | mass density [kg/m3] | speed of sound [m/s]
288.15 K | 1126.19 ± 2.2 | 1631.1 ± 3.4
293.15 K | 1123.42 ± 2.1 | 1623.9 ± 3.3
298.15 K | 1120.99 ± 2.1 | 1614.5 ± 3.3
303.15 K | 1118.21 ± 2.1 | 1604.5 ± 3.3
308.15 K | 1115.38 ± 2.1 | 1595.5 ± 3.3
313.15 K | 1112.57 ± 2.1 | 1587 ± 3.3
318.15 K | 1109.78 ± 2.1 | 1578.8 ± 3.3
323.15 K | 1106.93 ± 2 | 1570.6 ± 3.3

CN(CCO)CCO [N-methyldiethanolamine]
[1]
Conditions | speed of sound [m/s]
288.15 K | 1598.8 ± 3.3
293.15 K | 1583.1 ± 3.3
298.15 K | 1564.1 ± 3.3
303.15 K | 1546 ± 3.2
308.15 K | 1531 ± 3.2
313.15 K | 1516.1 ± 3.2
318.15 K | 1503.2 ± 3.2
323.15 K | 1490.4 ± 3.2

[1], Vibrating tube method
Conditions | mass density [kg/m3]
288.15 K | 1044.32 ± 1.2
293.15 K | 1040.59 ± 1.2
298.15 K | 1036.79 ± 1.2
303.15 K | 1033.06 ± 1.2
308.15 K | 1029.26 ± 1.2
313.15 K | 1025.45 ± 1.1
318.15 K | 1021.62 ± 1.1
323.15 K | 1018.22 ± 1.1

CCO [ethanol] + O
[2]
Conditions | mass density | speed of sound [m/s]
288.15 K | 930.86 ± 0.7 kg/m3 | 1546.7 ± 3.2
293.15 K | 927.08 ± 0.71 kg/m3 | 1534.1 ± 3.2
298.15 K | 923.22 ± 0.72 kg/m3 | 1521.1 ± 3.2
303.15 K | 919.31 ± 0.73 kg/m3 | 1507.9 ± 3.2
308.15 K | 915.32 ± 0.74 kg/m3 | 1494.5 ± 3.2
313.15 K | 911.27 ± 0.75 kg/m3 | 1480.9 ± 3.2
318.15 K | 908.03 ± 0.76 kg/m3 and 907.3 ± 0.76 kg/m3 | 1467 ± 3.1
323.15 K | 904.32 ± 0.77 kg/m3 and 903.71 ± 0.77 kg/m3 | 1452.9 ± 3.1
